Data from patent US20120316199A1, “COMPOSITIONS AND METHODS FOR TREATING, CONTROLLING, REDUCING, OR AMELIORATING INFLAMMATORY PAIN” (priority 2011, published 2012).
“And” between values parts separate entries of the source, which are not always exact repeats. Equal entries are not always repeated.

How the values were obtained:
[1] = test system: anterior chamber cells and flare following cataract surgery; assay: Clinical study after cataract surgery: resolution of anterior chamber (AC) cells and flare; type: in vivo, human; conditions: 2% QID, 3% QD, 3% BID, and 3% QID
Description: (§1) There were 8 treatment groups in this study, consisting of three drug doses, vehicle and three dosing frequencies (see also Table 4-1): • Group A: 1% BOL-303242-X ophthalmic suspension, two times per day (BID) • Group B: 2% BOL-303242-X ophthalmic suspension, one time per day (QD) • Group C: 2% BOL-303242-X ophthalmic suspension, BID • Group D: 2% BOL-303242-X ophthalmic suspension, four times per day (QID) • Group E: 3% BOL-303242-X ophthalmic suspension, QD • Group F: 3% BOL-303242-X ophthalmic suspension, BID • Group G: 3% BOL-303242-X ophthalmic suspension, QID • Group H: Vehicle for BOL-303242-X (divided equally into QID, BID, and QD)
(§2) Subjects self-administered study drug, instilling 1 to 2 drops of study drug into the study eye: QID at approximately 4 hour intervals, BID at approximately 12 hour intervals, or QD once in the morning, for 14 days. The initial dose occurred in the clinic at Visit 3 and the final dose was on the day before Visit 6 (postoperative Day 15±1 day). Subjects were examined and evaluated according to the following schedule:
Visit 1 (screening), Visit 2 (cataract surgery), Visit 3 (postoperative Day 1), Visit 4 (postoperative Day 3±1 day), Visit 5 (postoperative Day 8±1 day), Visit 6 (postoperative Day 15±1 day), Visit 7 (postoperative Day 18±1 day). […]

[2] = test system: protein concentration in the aqueous humor; assay: Protein measurement in aqueous humor, rabbit paracentesis model; type: in vivo, Rabbit (New Zealand); conditions: for Protein level in aqueous humor, Mean: group mean
Experimental: Each rabbit was placed in a restraint device and tagged with the alphanumeric code. The formulations were instilled (50 μl) into the conjunctival sac of both eyes 180, 120, 90 and 30 min before the first paracentesis; then 15, 30, 90 min after the first paracentesis. To perform the first paracentesis the animals were anaesthetized by intravenous injection of 5 mg/kg Zoletil® (Virbac; 2.5 mg/kg tiletamine HCl and 2.5 mg/kg zolazepam HCl) and one drop of local anesthetic (Novesina®, Novartis) was administered to the eye. Anterior chamber paracentesis was performed with a 26 G needle attached to a tuberculin syringe; the needle was introduced into the anterior chamber through the cornea, taking care not to damage the tissues. Two hours after the first paracentesis, the animals were sacrificed with 0.4 ml Tanax® (Intervet International B.V.) and the second paracentesis was performed. About 100 μl of aqueous humor were removed at the second paracentesis. Aqueous humor was immediately split in four aliquots and stored at −80° C. until analysis. Then both eyes were enucleated and the iris-ciliary body was carefully excised, placed in polypropylene tubes, and stored at −80° C. until analysis.
For protein concentration determination in the aqueous humor we used the Protein Quantification Kit (Fluka; Cat. No. 77371; Lot. No. 1303129). Five microliters of aqueous humor were diluted to 100 μl with water. Twenty microliters of samples and of standards were load into a 96-well plate and recorded in a plate layout. Samples were treated following the assay procedure described in the kit. A microplate reader (GDV, Italy; model DV 990 B/V6) set at 670 nm was used for making the calibration and analyzing the samples.
Pupillary diameter, PGE2, protein, PMN, and MPO were expressed as mean±SEM. Statistical analysis was performed using one way ANOVA followed by a Newman-Keuls post hoc test. Clinical score was expressed as % of eyes and the statistical analysis was performed using Kruskal-Wallis followed by a Dunn post hoc test. P<0.05 was considered statistically significant in both cases. Prism 4 software (GraphPad Software, Inc.) was used for the analysis and graphs.

[3] = test system: pain following cataract surgery; assay: Clinical study after cataract surgery: Grade 0 pain; type: in vivo, human
Description: as §1, §2
Visit 1 (screening), Visit 2 (cataract surgery), Visit 3 (postoperative Day 1), Visit 4 (postoperative Day 3±1 day), Visit 5 (postoperative Day 8±1 day), Visit 6 (postoperative Day 15±1 day), Visit 7 (postoperative Day 18±1 day). Subject assessments included adverse events (AEs), concomitant medications, ocular symptoms, pinholed Snellen visual acuity (VA), intraocular pressure (IOP), ocular signs (biomicroscopy), fundoscopy, and study drug drop sensation. In addition, subject diaries were collected and reviewed for accuracy and treatment compliance.
Secondary Efficacy: The secondary efficacy endpoints for this study were the proportions of subjects with Grade 0 pain at Visit 5 (postoperative Day 8) and at each visit, complete resolution of AC cells at each visit, complete resolution of AC cells and flare at each visit, complete resolution of AC flare at each visit, change from baseline to each follow-up visit in AC cells and AC flare combined and separately, ocular symptoms.

[4] = test system: rabbit eyes; assay: Ophthalmic observations (slit lamp, McDonald Shadduck scores) in New Zealand White rabbits; type: in vivo; set-up: key to Ophthalmic Observation (Slit-Lamp): AN = Appeared normal; key to Cornea Score: CORNEA 1 = Some loss of transparency. Only the epithelium and/or the anterior half of the stoma are involved. The underlying structures are clearly visible although some cloudiness may be readily apparent
Experimental: Prior to placement on study, each animal underwent a pre-treatment ophthalmic examination (slit lamp and indirect ophthalmoscopy). Observations were scored according to the McDonald Shadduck system and recorded using a standardized data collection sheet.
On Days 1-31, animals received daily topical doses of the appropriate test article into the right eye. Animals were dosed four times per day, with doses administered 2 hours apart. Doses were administered using a calibrated 50-μL pipette. The eyelids were held close for 10 seconds immediately following dosing. The time of each dose administration was recorded.
Ophthalmic examinations (slit lamp) were performed prior to the first dosing on Days 5, 12, 22, 26, and 33. Ocular findings were scored according to the McDonald Shadduck system and recorded using a standardized data collection sheet.

[5] = test system: pupillary diameter; assay: Pupillary diameter measurement, rabbit paracentesis model; type: in vivo, Rabbit (New Zealand); conditions: for Pupillary diameter T2: −5 min: 5 min before the first paracentesis; for Pupillary diameter T2: −5 min / Pupillary diameter T3: +115 min / Pupillary diameter T1: −180 min: raw data per eye, listed as BOL; for Pupillary diameter T3: +115 min: 5 min before the second paracentesis; for Pupillary diameter T1: −180 min: basal; for Mean (mm) Δ(T3 − T1) of pupillary diameter: group mean, n=8 eyes
[6] = Group B, 10 mg/g, treated right eye, individual animals
[7] = Group C, 5 mg/g, treated right eye, individual animals

## Cc1ccc2c(NC[C@](O)(CC(C)(C)c3cc(F)cc4c3OCC4)C(F)(F)F)cccc2n1 [BOL-303242-X, mapracorat]
[1]
  improvements in AC cells and Grade 0 pain at Visit 5 (postoperative Day 8): statistically significant improvements
[2]; 0.1% formulation, second paracentesis
  Protein level in aqueous humor, Mean: 33.667 mg/mL
[2]; 0.5% formulation, p<0.05
  Protein in aqueous humor, statistical significance vs CTR: statistical significance
[2]; 0.5% formulation, second paracentesis
  Protein level in aqueous humor, Mean: 28.844 mg/mL
[2]; 0.5% formulation, second paracentesis, per eye, listed as BOL
  Protein level in aqueous humor, raw data: 33.98 mg/mL and 33.65 mg/mL and 19.99 mg/mL and 27.11 mg/mL and 19.72 mg/mL and 36.35 mg/mL and 27.71 mg/mL and 32.24 mg/mL
[2]; 1% formulation, p<0.001
  Protein in aqueous humor, statistical significance vs CTR: statistical significance
[2]; 1% formulation, second paracentesis
  Protein level in aqueous humor, Mean: 21.435 mg/mL
[3]; 2% QID, Visit 5 (postoperative Day 8), vehicle 50.0%
  proportion of subjects with Grade 0 pain: 78.3%
[3]; 3% BID, Visit 7 (postoperative Day 18), vehicle 31.7%
  proportion of subjects with Grade 0 pain: 63.3%
[3]; 3% QID, Visit 7 (postoperative Day 18), vehicle 31.7%
  proportion of subjects with Grade 0 pain: 58.3%
[4]; 1 mg/g suspension, one eye (Group D, No. 3043)
  Slit-lamp ophthalmic finding in dosed right eye: subconjunctival hemorrhage
[4]; 10 mg/g suspension, one eye (Group B, No. 3083)
  Slit-lamp ophthalmic finding in dosed right eye: pinpoint corneal scar
[4]; Group B, 10 mg/g, treated right eye, animal 3083, Day 5
  Surface area of cornea involvement Score: 1 (SURFACE AREA OF CORNEA INVOLVEMENT 1 = 1-25% area of stromal cloudiness.)
[4]; Group B, 10 mg/g, treated right eye, animal 3083, Day 5, pinpoint corneal scar
  Cornea Score: 1^(2)
[4]; [6]
  Conjunctival congestion Score: 1
  Ophthalmic Observation (Slit-Lamp): AN
[4]; [7]
  Conjunctival congestion Score: 1
  Ophthalmic Observation (Slit-Lamp): AN
[4]; Group D, 1 mg/g, treated right eye, individual animal, Day 22
  Conjunctival congestion Score: 1
[4]; Group D, 1 mg/g, treated right eye, individual animals
  Ophthalmic Observation (Slit-Lamp): AN
[4]; four times daily up to 31 days, BOL-303242-X 0.05, 0.25, or 0.5 mg/dose, dexamethasone 0.05 mg/dose
  Ophthalmic observation associated with unilateral topical instillation: sporadic mild conjunctival congestion
[5]; 0.1% formulation
  Pupillary diameter T2: −5 min: 6.5 mm and 7.0 mm and 7.5 mm
  Pupillary diameter T3: +115 min: 5.0 mm and 6.0 mm and 6.5 mm and 5.5 mm
  Pupillary diameter T1: −180 min: 6.5 mm and 7.0 mm and 7.5 mm
  Mean (mm) Δ(T3 − T1) of pupillary diameter: −1.1 mm
[5]; 0.5% formulation
  Pupillary diameter T2: −5 min: 8.0 mm and 7.0 mm and 7.5 mm
  Pupillary diameter T3: +115 min: 6.5 mm and 6.0 mm and 7.0 mm
  Pupillary diameter T1: −180 min: 8.0 mm and 7.0 mm and 7.5 mm
  Mean (mm) Δ(T3 − T1) of pupillary diameter: −1.0 mm
[5]; 1% formulation
  Pupillary diameter T2: −5 min: 6.0 mm and 6.5 mm and 7.0 mm
  Pupillary diameter T3: +115 min: 5.5 mm and 5.0 mm and 6.0 mm
  Pupillary diameter T1: −180 min: 6.0 mm and 6.5 mm
  Mean (mm) Δ(T3 − T1) of pupillary diameter: −0.9 mm
